The values below come from patent US6403626B1, “Benzimidazole derivatives” (Synaptic Pharmaceutical Corporation, priority 1994, dated 2002).

Structures can show the parent of a compound that is named as a salt. Where two headings read alike, the source gives them in different places.

Series [1] has as its target T1, α1B Human Adrenergic Receptor (Homo sapiens, UniProt P35368).
T1 construct: The entire coding region of α1B(1563 bp); expressed in transfected cells; host or cells: LM(tk-) cells
T1 sequence (P35368 1-520): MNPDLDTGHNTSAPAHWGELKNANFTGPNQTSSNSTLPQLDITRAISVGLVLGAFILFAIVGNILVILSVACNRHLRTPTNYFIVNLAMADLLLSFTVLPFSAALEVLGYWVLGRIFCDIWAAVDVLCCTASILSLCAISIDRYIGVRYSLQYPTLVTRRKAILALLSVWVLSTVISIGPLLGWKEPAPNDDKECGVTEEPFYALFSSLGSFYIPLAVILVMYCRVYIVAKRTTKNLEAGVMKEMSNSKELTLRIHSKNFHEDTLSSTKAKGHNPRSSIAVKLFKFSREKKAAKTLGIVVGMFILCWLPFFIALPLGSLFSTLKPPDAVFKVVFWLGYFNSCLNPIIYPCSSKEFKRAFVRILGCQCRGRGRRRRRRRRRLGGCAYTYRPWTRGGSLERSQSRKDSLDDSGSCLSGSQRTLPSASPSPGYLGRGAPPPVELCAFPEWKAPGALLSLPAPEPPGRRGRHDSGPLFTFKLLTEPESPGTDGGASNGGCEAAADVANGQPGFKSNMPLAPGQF
Description: Equilibrium competition binding, [3H] prazosin, membranes of transfected LM(tk-) cells. As to conditions: cloned human receptor, [3H] prazosin. The procedure:
(§1) Binding and functional assays were performed using stably transfected human alpha adrenergic receptors. Equilibrium competition binding assays were performed with membrane preparations from cultured LM(tk-) cells stably transfected with the cloned human adrenoceptor subtypes except for α2b, which was expressed in Y-1 cells, using [^3H] prazosin for α1 receptors and [^3H] rauwolscine for α2 receptors.
(§2) Transfected cells from culture flasks were scraped into 5 ml of 5 mM Tris-HCl, 5 mM EDTA, pH 7.5, and lysed by sonication. The cell lysates were centrifuged at 1000 rpm for 5 min at 4° C., and the supernatant was centrifuged at 30,000×g for 20 min at 4° C. The pellet was suspended in 50 mM Tris-HCl, 1 mM MgCl2, and 0.1% ascorbic acid at pH 7.5. Binding of α2 antagonist [^3H] rauwolscine ([…]) to membrane preparations of LM(tk-) cells was done in a final volume of 0.25 ml and incubated at 37° C. for 20 min. Nonspecific binding was determined in the presence of 10 μM phentolamine. The reaction was stopped by filtration through GF/B filters using a cell harvester.
The construct involved ligating the full-length containing EcoRI brainstem cDNA fragment from ZapII into the expression vector. The stable cell lines were selected as described above.

In series [2] the target is T2, α1A Human Adrenergic Receptor (Homo sapiens, UniProt P25100).
T2 construct: expressed in transfected cells; host or cells: LM(tk-) cells
T2 sequence (P25100 1-572): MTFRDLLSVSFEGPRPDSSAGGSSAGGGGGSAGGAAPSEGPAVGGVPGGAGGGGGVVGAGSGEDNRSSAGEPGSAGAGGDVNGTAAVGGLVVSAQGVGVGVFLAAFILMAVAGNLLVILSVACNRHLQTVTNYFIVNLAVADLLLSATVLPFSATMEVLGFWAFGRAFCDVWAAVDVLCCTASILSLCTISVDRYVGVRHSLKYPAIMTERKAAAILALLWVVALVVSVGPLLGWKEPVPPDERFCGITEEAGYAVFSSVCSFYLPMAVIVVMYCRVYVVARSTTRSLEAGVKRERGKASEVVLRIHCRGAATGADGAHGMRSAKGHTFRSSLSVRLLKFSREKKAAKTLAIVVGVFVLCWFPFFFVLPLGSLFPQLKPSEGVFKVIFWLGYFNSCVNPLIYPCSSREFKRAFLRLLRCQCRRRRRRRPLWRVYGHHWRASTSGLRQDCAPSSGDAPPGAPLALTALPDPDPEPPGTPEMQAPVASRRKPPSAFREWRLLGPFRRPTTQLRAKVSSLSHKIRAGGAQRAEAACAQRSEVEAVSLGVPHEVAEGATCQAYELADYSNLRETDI
The description is as above. The procedure: as §1, §2
(§3) Stable cell lines were selected as described above.

Series [3] addresses T3, α2C Human Adrenergic Receptor (Homo sapiens, UniProt P18825).
T3 sequence (P18825 1-462): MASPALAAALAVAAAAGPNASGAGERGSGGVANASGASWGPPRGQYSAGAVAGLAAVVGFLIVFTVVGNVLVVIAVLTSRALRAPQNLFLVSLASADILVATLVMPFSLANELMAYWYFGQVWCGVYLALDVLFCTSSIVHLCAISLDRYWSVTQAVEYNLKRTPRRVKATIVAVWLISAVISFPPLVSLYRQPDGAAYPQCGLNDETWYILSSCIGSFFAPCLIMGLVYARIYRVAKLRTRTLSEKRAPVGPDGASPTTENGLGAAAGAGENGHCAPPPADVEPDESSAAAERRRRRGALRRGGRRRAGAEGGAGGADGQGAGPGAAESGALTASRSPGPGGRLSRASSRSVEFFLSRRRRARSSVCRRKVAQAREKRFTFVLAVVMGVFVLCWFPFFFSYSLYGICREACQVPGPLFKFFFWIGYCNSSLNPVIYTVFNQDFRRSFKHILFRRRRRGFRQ
The experiment in a line: Equilibrium competition binding, [3H] rauwolscine, membranes of transfected LM(tk-) cells.

For series [4], the target named is T4, α2B Human Adrenergic Receptor (Homo sapiens, UniProt P18089).
T4 construct: expressed in transfected cells; host or cells: Y-1 cells
T4 sequence (P18089 1-450): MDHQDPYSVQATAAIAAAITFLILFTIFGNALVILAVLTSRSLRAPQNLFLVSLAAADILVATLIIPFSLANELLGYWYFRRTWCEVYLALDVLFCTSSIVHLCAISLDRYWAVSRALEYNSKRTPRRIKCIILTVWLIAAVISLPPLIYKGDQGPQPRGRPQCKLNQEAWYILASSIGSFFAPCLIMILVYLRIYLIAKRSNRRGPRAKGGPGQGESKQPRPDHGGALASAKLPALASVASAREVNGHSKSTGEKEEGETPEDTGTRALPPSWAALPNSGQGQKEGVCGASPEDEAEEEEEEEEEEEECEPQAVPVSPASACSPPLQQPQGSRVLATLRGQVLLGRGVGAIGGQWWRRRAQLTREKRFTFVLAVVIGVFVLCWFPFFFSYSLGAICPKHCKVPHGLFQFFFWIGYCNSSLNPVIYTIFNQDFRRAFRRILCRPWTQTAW
Description: Equilibrium competition binding, [3H] rauwolscine, membranes of transfected Y-1 cells. As to the method:
as §1, §3, §2

On to `Brc1cc(NC2=NCCN2)cc2[nH]cnc12` (as salt: fumarate) [Example 51, 7-Bromo-5-(2-imidazolin-2-ylamino)Benzimidazole], for which the melting point (in general, the temperature, or range, at which the solid turns liquid) lay within 217 to 218 °C.
In turn, `CC(C)n1cnc2cc(NC3=NCCN3)ccc21` (as salt: fumarate) [Example 17, 1-Isopropyl-5-(2-imidazolin-2-ylamino)Benzimidazole] displayed a melting point of 185 to 186 °C.
Same read-out and setting: under `CC(C)(C)c1nc2ccc(NC3=NCCN3)c(Br)c2[nH]1` (as salt: fumarate) [Example 45, 2-tert-Butyl-4-bromo-5-(2-imidazolin-2-ylamino)Benzimidazole] stands 176 to 178 °C; under `Clc1cc(NC2=NCCN2)cc2[nH]cnc12` (as salt: fumarate) [Example 53, 7-Chloro-5-(2-imidazolin-2-ylamino)Benzimidazole], 220 to 221 °C.
On the same count and under the same terms, under `c1cc2c(cc1NC1=NCCN1)ncn2CC1CCCCC1` (as salt: fumarate) [Example 29, 1-Cyclohexylmethyl-5-(2-imidazolin-2-ylamino)Benzimidazole] stands 222 to 223 °C; under `Cn1cnc2cc(NC3=NCCN3)ccc21` (as salt: fumarate) [Example 9, 1-Methyl-5-(2-imidazolin-2-ylamino)Benzimidazole], 210 to 211 °C.
Same read-out and setting: under `Brc1c(NC2=NCCN2)ccc2ncn(Cc3ccccc3)c12` (as salt: fumarate) [Example 35, 3-Benzyl-4-bromo-5-(2-imidazolin-2-ylamino)Benzimidazole] stands 203 to 205 °C; under `Cc1cc2nc[nH]c2cc1NC1=NCCN1` (as salt: fumarate) [Example 49, 6-Methyl-5-(2-imidazolin-2-ylamino)Benzimidazole], 219 to 221 °C.
`Brc1c(NC2=NCCN2)ccc2nc[nH]c12` (as salt: fumarate) [Example 2, 4-Bromo-5-(2-imidazolin-2-ylamino)Benzimidazole] gave a melting point of 199 to 202 °C.
The same measure, in the same setting: under `CCCCc1cc(NC2=NCCN2)cc2[nH]cnc12` (as salt: fumarate) [Example 56, 7-Butyl-5-(2-imidazolin-2-ylamino)Benzimidazole] stands 115 to 117 °C.
On to `Clc1cccc(Cl)c1N=C1NCCN1` [Clonidine, reference compound], for which the “pKi Alpha-1 B” value in series [1] amounted to 5.62. In series [2] (cloned human receptor, [3H] prazosin, read-out: pKi Alpha-1 A (converted)), the Ki is 513 nM.
Compound `Brc1c(NC2=NCCN2)ccc2ncn(CC3CCCCC3)c12` (as salt: fumarate) [Example 31, 3-Cyclohexylmethyl-4-bromo-5-(2-imidazolin-2-ylamino)Benzimidazole] yielded a melting point of 153 to 155 °C.
On the same count and under the same terms, in the case of `CCc1cc(NC2=NCCN2)cc2[nH]cnc12` (as salt: fumarate) [Example 55, 7-Ethyl-5-(2-imidazolin-2-ylamino)Benzimidazole] it was 203 to 205 °C.
Still for that read-out and setting: in the case of `Brc1c(NC2=NCCN2)ccc2c1ncn2Cc1ccccc1` (as salt: fumarate) [Example 33, 1-Benzyl-4-bromo-5-(2-imidazolin-2-ylamino)Benzimidazole] it was 197 to 198 °C; in that of `CC(C)c1nc2ccc(NC3=NCCN3)c(Br)c2[nH]1` (as salt: fumarate) [Example 44, 2-Isopropyl-4-bromo-5-(2-imidazolin-2-ylamino)Benzimidazole], 176 to 178 °C; in that of `CCc1c(NC2=NCCN2)ccc2nc[nH]c12` (as salt: fumarate) [Example 6, 4-Ethyl-5-(2-imidazolin-2-ylamino)Benzimidazole], 238 to 239 °C.
Same read-out and setting: in the case of `Clc1c(NC2=NCCN2)ccc2nc[nH]c12` (as salt: fumarate) [Example 3, 4-Chloro-5-(2-imidazolin-2-ylamino)Benzimidazole] it was 207 to 208 °C.
`CCCn1cnc2cc(NC3=NCCN3)ccc21` [Example 13, 1-Propyl-5-(2-imidazolin-2-ylamino)Benzimidazole]: the Ki in series [3] was 398 nM; in series [1] (read-out: pKi Alpha-1 B (converted)), 93300 nM; in series [4], 363 nM; in series [2], 10500 nM.
